# Literature values in patent publication US20060045850A1, “Nasal delivery of cyclodextrin complexes of anti-inflammatory steroids” (QPharma, LLC, priority 2004, published 2006).
compound,measurement,setting,value
CCC(=O)O[C@]1(C(=O)SCF)[C@H](C)C[C@H]2[C@@H]3C[C@H](F)C4=CC(=O)C=C[C@]4(C)[C@@]3(F)[C@@H](O)C[C@@]21C [Fluticasone],absorption when administered orally,administered orally,no absorption
same,absolute bio-availability,"from the suspension formulation, administered nasally",less than 2.0%
